Earlier results on one compound are cited in paper PMC8463262 (Acta Pharmaceutica Sinica. B, 2020).

This data set deals with PRMT5. The settings on record: read-out: IC50 PRMT5.

Each structure is given as a SMILES string.

A word on the IC50: it is the concentration that inhibits the measured activity by half. On to `CCNC(=O)NCCSC[C@H]1O[C@@H](n2cnc3c(N)ncnc32)[C@H](O)[C@@H]1O` [DS437], for which the IC50 is 6 µM.
